Experimental data published in patent US20030144255A1, “Compositions for prevention and treatment of dementia” (priority 2002, published 2003).

What was measured:
aged rats [1] = experiment: Morris water maze learning test in aged rats; assay type: in vivo, rat; conditions: aged male rats of transgenic strain, test started on day 20 of treatment, vs control group
Protocol: (§1) Male (3 to 27 months old) rats of transgenic strain were used. The aged rats were divided into the following four groups.
(§2) 1) Control group: Repeated administration of placebo pill.
(§3) 2) 4,4′-diaminodiphenylsulphone group: Repeated oral administration of 4,4 -diaminodiphenylsulphone 1 mg/kg.
(§4) 3) Cholinesterase inhibitor group: Repeated oral administration of donepezil 0.3 mg/kg.
(§5) 4) Combination group: Repeated oral administration of 4,4′-diaminodiphenylsulphone 3 mg/kg and donepezil 0.3 mg/kg.
(§6) In the combination group, 4,4′-diaminodiphenylsulphone was administered 30 minutes after administration of donepezil.
(§7) Passive avoidance learning test was started on day 14 of treatment, and Morris water maze learning test on day 20 of treatment.
(§8) On each day of experiment, 4,4′-diaminodiphenylsulphone and a cholinesterase inhibitor were administered 30 minutes and 1 hour, respectively, before initiation of the trial.
Same animals used in the passive avoidance test were subjected for the water maze task. However, some rats can not swim well in the water tank, thus they were excluded in the water maze task. The water maze learning test was performed on young rats (saline, 10 animals) and aged rats (control group, 9 animals; 4,4′-diaminodiphenylsulphone group, 9 animals; Compound B group, 8 animals; combination group, 8 animals). […]

aged rats [2] = experiment: Passive avoidance learning test in aged rats; assay type: in vivo, rat; conditions: aged male rats of transgenic strain, test started on day 14 of treatment, vs control group
Protocol: as §1, §2, §3, §4, §5, §6, §7, §8
The passive avoidance learning test was performed using a chamber consisting of light and dark compartments. […]
In each trial, the latency from opening of the slide door until the animal moved to the dark compartment (step-through latency) was measured.

SMILES | water maze learning deficit (latency to find platform submerged in the water) (aged rats [1]; repeated oral 0.3 mg/kg) | passive avoidance learning deficit (step-through latency / avoidance time) (aged rats [2]; repeated oral 0.3 mg/kg) | water maze learning deficit (latency to find platform submerged in the water) (aged rats [1]; repeated oral 1 mg/kg) | passive avoidance learning deficit (step-through latency / avoidance time) (aged rats [2]; repeated oral 1 mg/kg)
COc1cc2c(cc1OC)C(=O)C(CC1CCN(Cc3ccccc3)CC1)C2.Cl (stereo not shown) [donepezil, 2,3-dihydro-5,6-dimethoxy-2-[[1-(phenylmethyl)-4-piperidinyl]methyl]-1H-inden-1-one hydrochloride] | significant improvement in water maze learning deficit | significant improvement of the learning deficit | – | –
Nc1ccc(S(=O)(=O)c2ccc(N)cc2)cc1 [4,4′-diaminodiphenylsulphone] | – | – | significant improvement in water maze learning deficit | significant improvement of the learning deficit
